Here are results for eight compounds from patent publication US9738670B2, “Pentaaza macrocyclic ring complexes possessing oral bioavailability” (Galera Labs, LLC, priority 2015, dated 2017).

Series [1] in a line: Intraduodenal (id) bioavailability screen in minipigs, oil formulations, vs iv parent dichloro complex. The format is in vivo, Gottingen minipig. The conditions noted are these: id 10 mg/kg, 10% by weight formulation, AUC0->24 h vs iv 1 mg/kg parent chloro complex. Here is the method:
Compounds were screened for oral bioavailability by injecting the formulated prodrugs directly into the duodenum (intraduodenal or id administration) of the minipig test subjects, thus bypassing the acidic environment of the stomach and thereby eliminating potentially misleading oral bioavailability results that could arise from alteration of the test article drug in the acid environment of the stomach.
The studies were conducted at Xenometrics LLC (Stillwell, Kans.) and the Id bioavailability was determined using various axial ligand derivative complexes of GC4419, GC4444, GC4403 and GC4401.
*Where the iv dose is 1 mg of test article drug per kilogram body weight of the mini-pig, and the dose administered id is 10 mg of test article drug per kg body weight of the mini-pig.
Male Gottingen minipigs (4-5 mo old, 9-12 kg weight) were purchased from Marshall BioResources and housed at Xenometrics. […] The distal end was exteriorized with a reusable accessible hub (see surgical details below). During a recovery period of at least 2 weeks the minipigs were handled daily to acclimate them to the test procedures, i.e., id dosing and blood collections. For each experiment, each minipig received a test article drug dissolved or suspended in an excipient vehicle. […] All dosing experiments were conducted in fasted animals. Food was withdrawn from the minipigs 16 hours before dosing. The minipigs had ad libitum access to water. Dosed minipigs were allowed access to food 6 hour after dosing. The test article was administered at a dose of 10 mg/kg parent drug in 0.1 m L/kg vehicle (e.g., 1.5 mL in 15 kg minipig) as a bolus injection (˜1 minute) via the id cannula. The actual amount of total test article drug administered varied with the formula weight of the prodrug. An equal volume of excipient vehicle was used to flush the cannula after the test article was administered. Approximately 6 hours later, corn oil was used to flush the cannula. After approximately 24 hours post-dose, the catheter was flushed with sterile saline solution and capped. At the following time-points 0.25, 0.5, 1, 2, 4, 8, 24 and 48 hour post-injection, 2 mL blood samples were collected by cranial vena cava puncture (4 mL Sodium heparin Vacutainer, 20 g 1.5″ needle) after the skin surface was wiped with ethanol. The minipig was placed in a sling in a recumbent position without anesthesia for the collection of blood samples. The minipigs were never used more than once per 7 days for experimentation. The blood samples were kept on ice until processed for plasma. Blood samples were centrifuged at 1200×g for ten minutes at 4° C. and plasma samples were transferred to 96 well plate tubes, capped and stored at −20° C. until shipment on dry ice to the analytical laboratory used for measuring the concentration of drug in the plasma. The concentration of the parent manganese pentaaza macrocylic ring complex (independent of the composition of the axial ligands) was measured in plasma using a validated HPLC/MS/MS method that is linear between 50 ng/mL and 20,000 ng/mL.
The oils used for preparing the dosing solutions were used as supplied from commercial sources. The Capmul MCM (NF) is a mixture of mono/diglycerides of caprylic/capric acids and was supplied by ABITEC Corporation, Janesville, Wis. The Miglyol 812 N is a mixture of caprylic/capric acid triglycerides and was supplied by Cremer Oleo Division, Eatontown, N.J. Labrafil M 2125 CS (NF) is chemically defined to be linoleoyl polyoxyl-6 glycerides NF and was supplied by Gattefosse, SAINT-PRIEST Cedex, France. Peceol is chemically defined to be the monoglyceride, glyceryl monooleate NF, and was supplied by Gattefosse, SAINT-PRIEST Cedex, France. Maisine 35-1 is chemically defined to be the monoglyceride glyceryl monolinoleate (NF) and was supplied by Gattefosse, SAINT-PRIEST Cedex, France. Labrasol (NF) is chemically defined to be caprylocaproyl polyoxyl-8 glycerides NF and was supplied by Gattefosse, SAINT-PRIEST Cedex, France. […]

For series [2], the system named is lethal total body irradiation. The conditions noted are these: ip, adult mice; cited from earlier work.
The test system of series [3] is collagen-induced arthritis. The conditions noted are these: ip, rat; cited from earlier work.
Series [4] deals with experimental model of colitis. Conditions: intraperitoneal (ip) injection, rats; cited from earlier work.
Series [5] concerns radiation-induced oral mucositis. Conditions: ip, hamster; cited from earlier work.
In series [6] the test system is oral mucositis. Conditions: intravenous (iv) infusion, patients; cited from earlier work.
Series [7] deals with VEGFr inhibitor-induced pulmonary disease. Conditions: ip, rat; cited from earlier work.
The subject of series [8] is mouse cancer models. Conditions: ip; cited from earlier work.

For `[Cl-].[Cl-].[Mn+2].c1cc2nc(c1)CN[C@@H]1CCCC[C@H]1NCCN[C@@H]1CCCC[C@H]1NC2` [GC4403], the “Mini-Pig BioA” value in series [1] (base oil Capmul MCM) is 9%. In addition, the radiation damage entry in series [2] and in series [5] was “attenuate the radiation damage” in each case. Also, the joint disease entry in series [3] was “prevent joint disease”. In addition, the “injury to the colon” value in series [4] is given as “significantly reduce the injury to the colon”.

`[Cl][Mn][Cl].c1cc2nc(c1)CN[C@H]1CCCC[C@@H]1NCCN[C@H]1CCCC[C@@H]1NC2` [GC4419, reference compound]: in series [6], the oral mucositis entry is on record as “reduce oral mucositis”. The “Mini-Pig BioA” value in series [1] (base oil Capmul MCM) is reported as 9%; in series [1] (base oil Labrafil M2125 CS), 7%; in series [1] (base oil Maisine 35-1), 8%; in series [1] (base oil Miglyol 812N), 8%; in series [1] (base oil Peceol) it was 9%. Besides, in series [7], the pulmonary disease entry is “attenuate VEGFr inhibitor-induced pulmonary disease”. Besides, in series [8], the “anti-tumor activity of co-administered agents” value is “increase the anti-tumor activity of anti-metabolite and anti-mitotic agents”.

As to “Manganese(II)bis-L-Lactato[(4aS,13aS,17aS,21aS)-1,2,3,4,4a,5,6,12,13,13a,14,15,16,17,17a,18,19,20,21,21a-Eicosahydro-11,7-nitrilo-7H-dibenzo[b,h][1,4,7,10] tetraazacycloheptadecine-KN5, KN13, KN18, KN21, KN22]- [GC4714]”, the “Mini-Pig BioA” value in series [1] (base oil Capmul MCM) is listed as 36%.

As for “Manganese(II)bis-racemic-phenylglycinato[(4aS,13aS,17aS,21aS)-1,2,3,4,4a,5,6,12,13,13a,14,15,16,17,17a,18,19,20,21,21a-Eicosahydro-11,7-nitrilo-7H-dibenzo[b,h][1,4,7,10] tetraazacycloheptadecine-KN5, KN13, KN18, KN21, KN22]- [GC4720]”, the “Mini-Pig BioA” value in series [1] (base oil Capmul MCM) amounted to 33%; in series [1] (base oil Miglyol 812N), 32%.

As for “Manganese(II)bis-phenylglyoxaloto[(4aS,13aS,17aS,21aS)-1,2,3,4,4a,5,6,12,13,13a,14, 15,16,17,17a,18,19,20,21,21a-Eicosahydro-11,7-nitrilo-7H-dibenzo[b,h][1,4,7,10] tetraazacyclohepta-decine-KN5, KN13, KN18, KN21, KN22]- [GC4719]”, the “Mini-Pig BioA” value in series [1] (base oil Capmul MCM) is reported as 25%; in series [1] (base oil Maisine 35-1), 31%; in series [1] (base oil Peceol), 28%.

Regarding “Manganese(II)bis-propionato[(4aR,13aR,17aR,21aR)-1,2,3,4,4a,5,6,12,13,13a,14,15,16,17,17a,18,19,20,21,21a-Eicosahydro-11,7-nitrilo-7H-dibenzo[b,h][1,4,7,10] tetraazacycloheptadecine-KN5, KN13, KN18, KN21, KN22]- [GC4748]”, the “Mini-Pig BioA” value in series [1] (base oil Labrafil M2125 CS) is recorded as 22%.

For the compound “Manganese(II)bis-cyclohexanebutyrato[(4aS,13aS,17aS,21aS)-1,2,3,4,4a,5,6,12,13,13a, 14,15,16,17,17a,18,19,20,21,21a-Eicosahydro-11,7-nitrilo-7H-dibenzo[b,h][1,4,7,10] tetraazacyclo-heptadecine-KN5, KN13, KN18, KN21, KN22]- [GC4707]”, the “Mini-Pig BioA” value in series [1] (base oil Capmul MCM) amounted to 9%.

Turning to “Manganese(II)bis-phenylacetato[(4aS,13aS,17aS,21aS)-1,2,3,4,4a,5,6,12,13,13a,14, 15,16,17,17a,18,19,20,21,21a-Eicosahydro-11,7-nitrilo-7H-dibenzo[b,h][1,4,7,10] tetraazacyclo-heptadecine-KN5, KN13, KN18, KN21, KN22]- [GC4718]”, the “Mini-Pig BioA” value in series [1] (base oil Capmul MCM) was 32%; in series [1] (base oil Maisine 35-1), 28%.
